{"source": "patent US10113000B2", "about": "“Combination therapies for B-cell lymphomas comprising administration of anti-CD20 antibody” (BIOGEN INC., priority 1998, dated 2018)", "origin": "cited, not measured here", "molecules": {"B1": {"name": "IL-4: cytokine (protein, UniProt P05112 25-153, looked up)", "Interleukin-4": "HKCDITLQEIIKTLNSLTEQKTLCTELTVTDIFAASKNTTEKETFCRAATVLRQFYSHHEKDTRCLGATAQQFHRHKQLIRFLKRLDRNLWGLAGLNSCPVKEANQSTLENFLERLKTIMREKYSKCSS"}}, "key": {"[1]": {"test_system": "multiple myeloma (MM) patient plasma cells"}, "[2]": {"test_system": "mononuclear cells from CLL patients", "settings": "incubated for 24 hours"}}, "data": [{"molecule": "gamma-interferon: cytokine", "values": [{"measurement": "binding of cells to Rituximab", "setting": "[1]; MM plasma cells, patient B-cells, normal donor B-cells", "result": "augments binding"}, {"measurement": "concentration at which plateau of CD20 induction occurred", "setting": "[1]; at 48 hours", "result": 100, "unit": "U/ml"}, {"measurement": "concentration at which CD20 upregulation is seen", "setting": "[1]; plasma cells, dose dependent", "result": 1, "unit": "U/ml"}]}, {"molecule": "GM-CSF: cytokine", "values": [{"measurement": "CD20 expression by flow cytometry", "setting": "[2]", "result": "significant up-regulation"}]}, {"molecule": "TNF-alpha", "values": [{"measurement": "CD20 expression by flow cytometry", "setting": "[2]", "result": "significant up-regulation"}]}, {"molecule": "B1", "values": [{"measurement": "CD20 expression by flow cytometry", "setting": "[2]", "result": "significant up-regulation"}]}]}
